The record followed here is ChEMBL document CHEMBL1944555, “Selective and slow-binding inhibition of shikonin derivatives isolated from Lithospermum erythrorhizon on glycosyl hydrolase 33 and 34 sialidases” (Bioorg Med Chem, 2012).

Structures are written as SMILES. Activity calls are given as the source filed them. No cut-off for these calls is given here.

In test [1] the test system is Clostridium perfringens. In words: (§1) Inhibition of Clostridium perfringens ATCC 10543 sialidase Nan1 c-terminal catalytic domain using 4-methylumbelliferyl-alpha-D-N-acetylneuraminic acid sodium salt hydrate as substrate by fluorimetric analysis.
Test [2] can be described thus: as §1.
Test [3] in a line: Inhibition of beta-glucosidase at 200 uM.
The nature of test [4]: Inhibition of rhamnosidase at 200 uM.
Test [5] has as its system Clostridium perfringens. In words: Competitive inhibition of Clostridium perfringens ATCC 10543 sialidase Nan1 c-terminal catalytic domain using 4-methylumbelliferyl-alpha-D-N-acetylneuraminic acid sodium salt hydrate as substrate by Lineweaver-Burk and Dixon plot analysis.
The subject of test [6] is Clostridium perfringens. Put plainly: Inhibition of Clostridium perfringens ATCC 10543 sialidase Nan1 c-terminal catalytic domain using 4-methylumbelliferyl-alpha-D-N-acetylneuraminic acid sodium salt hydrate as substrate at IC50 concentration pre-incubated for 10 mins prior substrate addition by fluorimetric analysis. The following applies: TDE = time-dependent effect.

The target of test [7] is Neuraminidase (Influenza A virus (strain A/Brevig Mission/1/1918 H1N1) (Influenza Avirus (strain A/South Carolina/1/1918 H1N1))) (UniProt Q9IGQ6). Put plainly: (§2) Inhibition of recombinant influenza A virus H1N1 A/Bervig_Mission/1/18 sialidase activity using 4-methylumbelliferyl-alpha-D-N-acetylneuraminic acid sodium salt hydrate as substrate by fluorimetric analysis. Particulars: Influenza A virus (A/Brevig Mission/1/1918(H1N1)).

Test [8] deals with Neuraminidase (Influenza A virus (strain A/Brevig Mission/1/1918 H1N1) (Influenza Avirus (strain A/South Carolina/1/1918 H1N1)), UniProt Q9IGQ6). The test is described as §2. Also on record: species or system Influenza A virus (A/Brevig Mission/1/1918(H1N1)).
Test [9] in a line: Reversible inhibition of Clostridium perfringens ATCC 10543 sialidase Nan1 c-terminal catalytic domain using 4-methylumbelliferyl-alpha-D-N-acetylneuraminic acid sodium salt hydrate as substrate compound pre-incubated prior to substrate addition by fluorimetric analysis. Particulars: read-out: Ki(app).
The nature of test [10]: Inhibition of alpha-glucosidase.
For test [11], the target named is Neuraminidase (Influenza A virus (strain A/Brevig Mission/1/1918 H1N1) (Influenza Avirus (strain A/South Carolina/1/1918 H1N1))) (UniProt Q9IGQ6). In words: Noncompetitive inhibition of recombinant influenza A virus H1N1 A/Bervig_Mission/1/18 sialidase activity using 4-methylumbelliferyl-alpha-D-N-acetylneuraminic acid sodium salt hydrate as substrate by Lineweaver-Burk and Dixon plot analysis. The following applies: Influenza A virus (A/Brevig Mission/1/1918(H1N1)).

Test [12] in a line: Inhibition of alpha-glucosidase at 200 uM.
Test [13] concerns the target Neuraminidase (Influenza A virus (strain A/Brevig Mission/1/1918 H1N1) (Influenza Avirus (strain A/South Carolina/1/1918 H1N1))) (UniProt Q9IGQ6). In words: Inhibition of recombinant influenza A virus H1N1 A/Bervig_Mission/1/18 sialidase activity using 4-methylumbelliferyl-alpha-D-N-acetylneuraminic acid sodium salt hydrate as substrate at 200 uM by fluorimetric analysis. The following applies: Influenza A virus (A/Brevig Mission/1/1918(H1N1)).

Neuraminidase (Influenza A virus (strain A/Brevig Mission/1/1918 H1N1) (Influenza Avirus (strain A/South Carolina/1/1918 H1N1))), sequence (Q9IGQ6 whole entry): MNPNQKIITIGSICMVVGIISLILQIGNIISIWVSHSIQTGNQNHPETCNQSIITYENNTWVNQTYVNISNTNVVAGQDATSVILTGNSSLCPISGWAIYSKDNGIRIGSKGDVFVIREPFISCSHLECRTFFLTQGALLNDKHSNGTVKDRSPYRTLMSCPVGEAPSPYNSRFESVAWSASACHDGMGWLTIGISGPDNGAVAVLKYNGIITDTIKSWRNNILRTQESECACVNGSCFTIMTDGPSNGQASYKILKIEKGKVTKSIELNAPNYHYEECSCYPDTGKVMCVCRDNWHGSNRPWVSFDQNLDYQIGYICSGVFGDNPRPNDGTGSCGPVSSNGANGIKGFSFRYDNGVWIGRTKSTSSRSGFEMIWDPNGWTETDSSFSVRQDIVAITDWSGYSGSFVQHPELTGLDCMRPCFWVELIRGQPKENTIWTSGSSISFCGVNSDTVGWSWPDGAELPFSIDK
Neuraminidase (Influenza A virus (strain A/Brevig Mission/1/1918 H1N1) (Influenza Avirus (strain A/South Carolina/1/1918 H1N1)), UniProt Q9IGQ6), sequence (Q9IGQ6 whole entry, the tested form may be a part): as the sequence (Q9IGQ6 whole entry) above

For `CC(=O)O[C@H](CC=C(C)C)C1=CC(=O)c2c(O)ccc(O)c2C1=O` [ACETYLSHIKONIN], the inhibition entry is “Dose-dependent effect” in test [1], “tde” in [6] and “Dose-dependent effect” in test [7]. The IC50 in [2] worked out at 2.5 µM; in [8], 41.4 µM; in test [10], 158 µM. Moreover, the inhibition entry in test [3] and in [4] was “inactive” each time. The Kic in [5] stood at 1.1 µM. Besides, the Ki in [9] is 1.01 µM. In addition, the inhibition result in test [11] is “Active”.
In the case of `CC(C)=CC[C@@H](OC(=O)CC(C)(C)O)C1=CC(=O)c2c(O)ccc(O)c2C1=O` [BETA-HYDROXYISOVALERYLSHIKONIN], the figures for the inhibition entry in [1], in test [6] and in [7] were “Dose-dependent effect”, “tde” and “Dose-dependent effect”, respectively. The IC50 came to 3.4 µM in test [2] and 40.5 µM in test [8]. Also, the inhibition entry in test [3], in [4] and in test [12] was “inactive” each time. In addition, in test [5], the Kic is 0.8 µM. In addition, the Ki in test [9] came out at 2.24 µM. Further, the inhibition entry in test [11] is “Active”.
Regarding `CC(C)=CCCC1=CC(=O)c2c(O)ccc(O)c2C1=O` [DEOXYSHIKONIN], the inhibition entry is “Dose-dependent effect” in [1], “tde” in test [6] and “Dose-dependent effect” in test [7]. In addition, the 50% inhibitory concentration (IC50) in test [2] came out at 27.5 µM; in test [8], 63.4 µM. Also, the inhibition result in [3], in test [4] and in [12] was “inactive” each time. For the same compound, the Kic in test [5] is 15.9 µM. For the same compound, in test [9], the Ki came to 11.9 µM. Moreover, in test [11], the inhibition entry was “Active”.
As to `CC(C)=CC[C@@H](OC(=O)C=C(C)C)C1=CC(=O)c2c(O)ccc(O)c2C1=O` [DIMETHYLACRYLSHIKONIN], the inhibition result in [1] was “Dose-dependent effect”; in test [6] it was “tde”; in test [7], “Dose-dependent effect”. For the same compound, the IC50 was 1.9 µM in test [2], 47.3 µM in [8] and 141 µM in test [10]. For the same compound, the inhibition entry in [3] and in [4] was “inactive” in each case. Further, the Kic in test [5] amounted to 0.6 µM. Besides, in test [9], the Ki was 1.75 µM. Also, in test [11], the inhibition entry is “Active”.
In the case of `CC(C)=CC[C@@H](OC(=O)C(C)C)C1=CC(=O)c2c(O)ccc(O)c2C1=O` [ISOBUTYLSHIKONIN], the inhibition entry in [1] is “Dose-dependent effect”; in [6] it was “tde”; in test [7], “Dose-dependent effect”. The values for the IC50 in test [2], in test [8] and in test [10] were 2.9 µM, 40.5 µM and 144 µM, respectively. For the same compound, the inhibition entry in test [3] and in test [4] was “inactive” each time. Moreover, the Kic in test [5] came out at 0.9 µM. Moreover, the Ki in [9] turned out to be 0.26 µM. Further, in test [11], the inhibition result was “Active”.
Consider `CC(C)=CC[C@@H](O)C1=CC(=O)c2c(O)ccc(O)c2C1=O` [SHIKONIN], for which the inhibition result in [1] is “Dose-dependent effect”; in [6] it was “tde”; in test [7], “Dose-dependent effect”. Besides, the IC50 in test [2] came to 53.8 µM; in [8] it was 34.1 µM. The inhibition entry in test [3], in test [4] and in [12] was “inactive” throughout. In addition, the Kic in test [5] was 21.4 µM. Moreover, the Ki in [9] was 58.8 µM. In addition, the inhibition result in [11] is “Active”.
Turning to `CC(C)=CCC(OC(=O)CC(C)C)c1coc(-c2cc(O)ccc2O)c1` (configuration not stated) [SHIKONOFURAN C], the inhibition entry in test [1] is “Dose-dependent effect”; in test [6], “tde”. For the same compound, the IC50 in test [2] was 0.6 µM; in test [8], > 100 µM; in test [10], 20.8 µM. The inhibition entry in test [3], in [4] and in [13] was “inactive” in each case. In test [5], the Kic worked out at 0.2 µM. Moreover, the Ki in test [9] stood at 0.15 µM.
In the case of `CC(C)=CCC(OC(=O)C(C)C)c1coc(-c2cc(O)ccc2O)c1` (configuration not stated) [SHIKONOFURAN D], the inhibition entry in test [1] is “Dose-dependent effect”; in test [6] it was “tde”. For the same compound, the IC50 in [2] is 1 µM; in [8], > 100 µM; in [10] it was 37.8 µM. Besides, the inhibition entry in [3], in [4] and in test [13] was “inactive” in each case. The Kic in [5] stood at 0.3 µM. Besides, the Ki in [9] is 0.21 µM.
In the case of `CC(C)=CCC(OC(=O)C=C(C)C)c1coc(-c2cc(O)ccc2O)c1` (configuration not stated) [SHIKONOFURAN E], the inhibition entry in [1] is “Dose-dependent effect”; in test [6], “tde”. The 50% inhibitory concentration (IC50) in [2] was 0.2 µM; in [8], > 100 µM; in test [10], 26.6 µM. The inhibition entry in test [3], in test [4] and in test [13] was “inactive” each time. Further, in [5], the Kic worked out at 0.1 µM. Also, the Ki in [9] is 0.05 µM.
For `OCC(CO)N[C@H]1C[C@](O)(CO)[C@@H](O)[C@H](O)[C@H]1O` [VOGLIBOSE], it took 23.4 µM to reach half-maximal inhibition in test [10] (IC50).
